The record followed here is US12692232B2, “Indole carboxamide compound, preparation therefor and use thereof” (NANJING RUISHUNING MEDICAL TECHNOLOGY CO., LTD., priority 2021, dated 2026).

The target in this test is T1, TRPC4 protein (Homo sapiens, UniProt Q9UBN4).
T1 sequence (Q9UBN4 1-977): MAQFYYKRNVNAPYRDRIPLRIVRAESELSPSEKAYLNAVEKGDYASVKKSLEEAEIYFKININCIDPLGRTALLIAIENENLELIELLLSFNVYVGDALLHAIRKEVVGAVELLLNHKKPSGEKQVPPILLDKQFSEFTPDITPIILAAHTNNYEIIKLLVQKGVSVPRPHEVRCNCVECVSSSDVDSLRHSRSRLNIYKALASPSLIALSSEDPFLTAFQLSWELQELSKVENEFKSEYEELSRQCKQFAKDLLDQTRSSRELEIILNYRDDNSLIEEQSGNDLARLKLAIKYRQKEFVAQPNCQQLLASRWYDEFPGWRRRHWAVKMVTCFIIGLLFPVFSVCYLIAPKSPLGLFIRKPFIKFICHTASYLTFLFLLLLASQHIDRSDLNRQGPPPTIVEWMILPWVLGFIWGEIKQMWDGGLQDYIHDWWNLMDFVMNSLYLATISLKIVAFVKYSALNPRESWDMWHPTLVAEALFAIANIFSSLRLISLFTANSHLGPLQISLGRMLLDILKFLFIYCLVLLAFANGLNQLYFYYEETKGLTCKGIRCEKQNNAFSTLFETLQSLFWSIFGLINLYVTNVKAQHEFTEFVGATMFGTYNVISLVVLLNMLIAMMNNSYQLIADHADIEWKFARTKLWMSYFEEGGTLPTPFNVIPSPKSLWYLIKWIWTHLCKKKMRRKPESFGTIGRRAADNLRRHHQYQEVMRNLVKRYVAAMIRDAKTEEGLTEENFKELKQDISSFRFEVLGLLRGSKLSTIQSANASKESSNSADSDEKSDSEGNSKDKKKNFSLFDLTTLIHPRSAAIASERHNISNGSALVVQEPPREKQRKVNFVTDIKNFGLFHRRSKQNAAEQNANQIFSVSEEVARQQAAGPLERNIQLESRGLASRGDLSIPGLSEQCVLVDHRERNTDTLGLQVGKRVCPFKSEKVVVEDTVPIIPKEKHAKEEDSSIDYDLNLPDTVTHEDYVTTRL
Kind of test: MST binding to TRPC4 protein. As to the method:
Preparation and labelling of protein solution: TRPC6 protein dry powder (Alomone Labs, Israel) was prepared into a protein mother solution at a concentration of 10 μM using PBS-Buffer, and 35 μL of the protein stock solution was taken to the Buffer exchange A column, and centrifuged to obtain the Tris-removed protein. 34 μL Labelling Buffer was added to the Tris-removed protein according to the instructions of the Protein Fluorescent Labelling Kit (model L001). After mixing well, 3 μL of NT-647-NHS fluorescent dye was added and thus obtained mixture was incubated for 20 minutes. The protein-dye mixture was transferred to the purification B column, 300 μL of PBS-Buffer was added, and the target protein, i.e. fluorescent labelled protein TRPC6, was collected by centrifugation (with a final concentration of about 2 μM). 180 μL of target protein was mixed with 1620 μL of PBS-Buffer, and then 9 μl of Tween-20 were added thereto. […]
The binding ability of the compounds of the present invention (as exemplified by the compounds 1-1 and 2-1 obtained in Examples 1 and 3) for other TRPC proteins (e.g., TRPC1, TRPC3, TRPC4, TRPC5, and TRPC7) was determined using the microscale thermophoresis (MST) method. […]
The affinity of the compounds of the present invention with TRPC1, TRPC3, TRPC4, TRPC5 and TRPC7 proteins, respectively, was determined by the same method as in Example 5.

Regarding `CC(=O)OCCCNC(=O)c1c(C=O)c2ccccc2n1C` [compound 1-1, propyl 3-[(3-formyl-1-methyl-1H-indole-2-carbonyl)amino]acetate], the “Kd for binding to TRPC4 protein” value is on record as “cannot be measured”.
In the case of `Cn1c(C(=O)NCCCOC(=O)c2ccccc2)c(C=O)c2ccccc21` [compound 2-1], the “Kd for binding to TRPC4 protein” value is on record as “cannot be measured”.
